In ChEMBL document CHEMBL1157981, “Goniotriocin and (2,4-cis- and -trans)-xylomaticinones, bioactive annonaceous acetogenins from Goniothalamus giganteus” (J Nat Prod, 1999):
Values after ≈ are worked out from the molar mass of the structure shown.

Key:
A498 = assay: Cytotoxicity against human A-498 cells by MTT assay; assay type: functional; conditions: read-out: ED50 (the source's name)
MIA PaCa-2 = assay: Cytotoxicity against human PaCa2 cells by MTT assay; assay type: functional; conditions: read-out: ED50 (the source's name)
HT-29 = assay: Cytotoxicity against human HT-29 cells by MTT assay; assay type: functional; conditions: read-out: ED50 (the source's name)
A549 = assay: Cytotoxicity against human A549 cells by MTT assay; assay type: functional; conditions: read-out: ED50 (the source's name)
MCF7 = assay: Cytotoxicity against human MCF7 cells by MTT assay; assay type: functional; conditions: read-out: ED50 (the source's name)
PC-3 = assay: Cytotoxicity against human PC-3 cells by MTT assay; assay type: functional; conditions: read-out: ED50 (the source's name)
[1] = Toxicity in brine shrimp; assay type: organism-based; conditions: artemia, in vivo
Aedes aegypti = assay: Pesticidal activity against yellow fever mosquito larvae by microtiter plate assay; assay type: functional

Structure (SMILES) | EC50 (A498) | EC50 (MIA PaCa-2) | EC50 (HT-29) | EC50 (A549) | EC50 (MCF7) | EC50 (PC-3) | LC50 [1] | LC50 (Aedes aegypti)
COc1cccc2c1C(=O)c1c(O)c3c(c(O)c1C2=O)C[C@@](O)(C(=O)CO)C[C@@H]3O[C@H]1C[C@H](N)[C@H](O)[C@H](C)O1 [DOXORUBICIN] | 0.019 µg/mL (≈ 0.035 µM) | 0.023 µg/mL (≈ 0.0423 µM) | 0.031 µg/mL (≈ 0.057 µM) | 0.017 µg/mL (≈ 0.0313 µM) | 0.21 µg/mL (≈ 0.386 µM) | 0.062 µg/mL (≈ 0.114 µM) |  | 
CCCCCCCCCCCCC(=O)C[C@@H]1C[C@@H](O)[C@@H](CC[C@H](O)[C@@H]2CC[C@@H](CCCCCC(O)CC3=CC(C)OC3=O)O2)O1 (stereo not given in full) [GONIOTRICIN] | 0.0011 µg/mL (≈ 0.00173 µM) | 1.4 µg/mL (≈ 2.2 µM) | 0.0012 µg/mL (≈ 0.00188 µM) | 0.033 µg/mL (≈ 0.0518 µM) | 0.0033 µg/mL (≈ 0.00518 µM) | 0.26 µg/mL (≈ 0.408 µM) | 2.7 µg/mL (≈ 4.24 µM) | 3.6 µg/mL (≈ 5.65 µM)
C=C(C)[C@H]1Cc2c(ccc3c2O[C@@H]2COc4cc(OC)c(OC)cc4[C@@H]2C3=O)O1 [ROTENONE] |  |  |  |  |  |  |  | 0.3 µg/mL (≈ 0.761 µM)
